Measured values reported in ChEMBL document CHEMBL1909046, “DrugMatrix in vitro pharmacology data”.

Key:
[1] = target: Sodium-dependent dopamine transporter (Homo sapiens, UniProt Q01959); test: DRUGMATRIX: Dopamine Transporter radioligand binding (ligand: [125I] RTI-55); type: cell membranes, CHO-K1, Membrane; details: cho-k1; Not Active = under 50% inhibition at 10 µM
[2] = DRUGMATRIX: Tumor Necrosis Factor (TNF), Non-Selective radioligand binding (ligand: [125I] TNF-alpha); type: cell membranes, Membrane; details: u-937; Not Active = under 50% inhibition at 10 µM
[3] = DRUGMATRIX: Platelet-Derived Growth Factor (PDGF) radioligand binding (ligand: [125I] PDGF); type: cell-based; details: nih3t3; Not Active = under 50% inhibition at 10 µM
Melanocortin receptor 3 = Melanocortin receptor 3 (Homo sapiens, UniProt P41968); type: cell membranes, Membrane; details: hek293; also: in other assays of this panel Not Active means under 50% inhibition at 10 µM
Chain of Melanocortin receptor 3 (P41968 whole entry): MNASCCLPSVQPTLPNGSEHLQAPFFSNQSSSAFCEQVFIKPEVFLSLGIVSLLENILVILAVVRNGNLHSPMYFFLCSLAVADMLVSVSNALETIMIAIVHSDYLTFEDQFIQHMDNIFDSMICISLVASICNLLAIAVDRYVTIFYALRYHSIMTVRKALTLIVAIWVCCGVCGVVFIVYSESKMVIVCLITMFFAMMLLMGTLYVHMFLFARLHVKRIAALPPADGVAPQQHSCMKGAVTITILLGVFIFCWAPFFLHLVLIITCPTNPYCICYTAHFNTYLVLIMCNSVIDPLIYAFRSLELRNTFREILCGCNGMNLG

[4] = target: Platelet-activating factor receptor (Homo sapiens, UniProt P25105); type: tissue-based; also: in other assays of this panel Not Active means under 50% inhibition at 10 µM
Chain of Platelet-activating factor receptor (P25105 whole entry): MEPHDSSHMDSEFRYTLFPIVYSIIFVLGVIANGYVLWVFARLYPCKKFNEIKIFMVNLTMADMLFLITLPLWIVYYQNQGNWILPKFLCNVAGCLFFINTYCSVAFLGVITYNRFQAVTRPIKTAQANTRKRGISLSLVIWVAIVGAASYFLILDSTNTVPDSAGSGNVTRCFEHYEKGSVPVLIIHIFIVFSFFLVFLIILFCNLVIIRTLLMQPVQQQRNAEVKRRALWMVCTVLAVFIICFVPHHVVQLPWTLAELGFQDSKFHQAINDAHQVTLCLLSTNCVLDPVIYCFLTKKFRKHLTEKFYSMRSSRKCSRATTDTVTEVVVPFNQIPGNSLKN

[5] = target: Epidermal growth factor receptor (Homo sapiens, UniProt P00533); test: DRUGMATRIX: Protein Tyrosine Kinase, EGF Receptor enzyme inhibition (substrate: Poly(Glu:Tyr)); type: cell-based, Insect cells; details: insect cells; Not Active = under 50% inhibition at 10 µM
Chain of Epidermal growth factor receptor (P00533 whole entry): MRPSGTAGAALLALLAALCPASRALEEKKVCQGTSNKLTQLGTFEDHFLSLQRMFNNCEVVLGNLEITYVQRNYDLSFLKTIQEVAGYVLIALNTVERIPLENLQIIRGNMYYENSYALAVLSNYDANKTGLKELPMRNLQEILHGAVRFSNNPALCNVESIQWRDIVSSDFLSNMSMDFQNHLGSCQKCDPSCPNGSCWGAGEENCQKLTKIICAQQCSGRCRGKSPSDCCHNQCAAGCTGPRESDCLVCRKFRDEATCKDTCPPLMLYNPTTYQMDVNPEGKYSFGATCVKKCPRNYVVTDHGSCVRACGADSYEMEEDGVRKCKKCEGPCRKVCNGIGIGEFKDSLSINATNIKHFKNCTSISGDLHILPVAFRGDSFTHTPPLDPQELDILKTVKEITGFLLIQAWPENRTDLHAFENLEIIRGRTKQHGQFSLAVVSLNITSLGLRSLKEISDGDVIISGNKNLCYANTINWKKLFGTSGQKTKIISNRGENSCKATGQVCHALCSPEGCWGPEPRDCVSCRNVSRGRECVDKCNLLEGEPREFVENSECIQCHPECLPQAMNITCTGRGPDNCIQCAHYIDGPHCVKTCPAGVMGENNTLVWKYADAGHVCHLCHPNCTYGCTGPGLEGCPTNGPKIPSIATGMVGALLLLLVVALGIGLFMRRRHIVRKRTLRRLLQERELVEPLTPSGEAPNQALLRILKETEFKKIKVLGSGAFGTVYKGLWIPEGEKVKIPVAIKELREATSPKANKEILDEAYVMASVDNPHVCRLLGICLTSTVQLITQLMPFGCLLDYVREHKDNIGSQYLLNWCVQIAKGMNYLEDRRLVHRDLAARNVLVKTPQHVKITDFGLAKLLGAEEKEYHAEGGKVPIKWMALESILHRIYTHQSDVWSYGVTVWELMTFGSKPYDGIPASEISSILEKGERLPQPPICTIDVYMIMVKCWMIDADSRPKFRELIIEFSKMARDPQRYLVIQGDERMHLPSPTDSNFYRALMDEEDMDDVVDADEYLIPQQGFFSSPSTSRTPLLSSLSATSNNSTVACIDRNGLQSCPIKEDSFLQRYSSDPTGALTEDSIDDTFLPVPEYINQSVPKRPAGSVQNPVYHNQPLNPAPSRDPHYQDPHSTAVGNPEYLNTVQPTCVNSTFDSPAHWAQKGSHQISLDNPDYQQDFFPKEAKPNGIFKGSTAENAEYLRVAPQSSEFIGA

Substance-K receptor = target: T1, Substance-K receptor (Homo sapiens, UniProt P21452); type: cell membranes, CHO, Membrane; details: cho; also: in other assays of this panel Not Active means under 50% inhibition at 10 µM
T1 sequence (P21452 whole entry): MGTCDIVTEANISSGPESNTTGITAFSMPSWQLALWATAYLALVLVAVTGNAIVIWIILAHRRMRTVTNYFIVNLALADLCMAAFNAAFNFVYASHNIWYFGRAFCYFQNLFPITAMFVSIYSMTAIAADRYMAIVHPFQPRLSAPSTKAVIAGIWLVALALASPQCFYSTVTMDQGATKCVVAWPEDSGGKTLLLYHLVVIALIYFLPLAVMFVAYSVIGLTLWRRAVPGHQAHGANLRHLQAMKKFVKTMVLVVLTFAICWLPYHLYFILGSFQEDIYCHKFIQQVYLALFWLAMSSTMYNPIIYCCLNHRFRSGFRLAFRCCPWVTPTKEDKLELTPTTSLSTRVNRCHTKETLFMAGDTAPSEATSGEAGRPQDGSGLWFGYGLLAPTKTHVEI

Chain of Sodium-dependent dopamine transporter (Q01959 whole entry): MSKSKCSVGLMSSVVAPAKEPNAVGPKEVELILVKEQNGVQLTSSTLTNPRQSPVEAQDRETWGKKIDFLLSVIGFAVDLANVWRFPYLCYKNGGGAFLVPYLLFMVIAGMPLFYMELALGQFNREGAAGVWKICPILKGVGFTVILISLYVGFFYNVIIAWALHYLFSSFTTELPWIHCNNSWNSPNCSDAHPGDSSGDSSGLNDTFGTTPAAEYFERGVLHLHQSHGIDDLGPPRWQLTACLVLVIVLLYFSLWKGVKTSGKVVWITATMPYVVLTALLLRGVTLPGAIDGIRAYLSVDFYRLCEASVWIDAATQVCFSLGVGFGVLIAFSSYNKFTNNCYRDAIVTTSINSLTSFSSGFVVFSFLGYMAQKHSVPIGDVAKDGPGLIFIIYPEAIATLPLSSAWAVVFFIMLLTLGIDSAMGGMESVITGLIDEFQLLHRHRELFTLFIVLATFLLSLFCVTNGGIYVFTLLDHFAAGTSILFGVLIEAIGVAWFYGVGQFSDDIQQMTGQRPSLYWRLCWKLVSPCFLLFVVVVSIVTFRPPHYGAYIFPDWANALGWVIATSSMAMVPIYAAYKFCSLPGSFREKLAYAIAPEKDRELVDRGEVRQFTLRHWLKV

Nc1ccn([C@@H]2CS[C@H](CO)O2)c(=O)n1 [LAMIVUDINE]
Not Active: IC50 [1] | IC50 [2] | Ki [2] | IC50 [3] | Ki [3] | IC50 (Melanocortin receptor 3) | IC50 [4] | IC50 [5] | IC50 (Substance-K receptor)

O=S(=O)([O-])CCS.[Na+] [MESNA]
Not Active: IC50 [1] | IC50 [2] | Ki [2] | IC50 [3] | Ki [3] | IC50 (Melanocortin receptor 3) | IC50 [4] | IC50 [5] | IC50 (Substance-K receptor)

C#C[C@]1(O)CC[C@H]2[C@@H]3CCc4cc(OC)ccc4[C@H]3CC[C@@]21C [MESTRANOL]
Not Active: IC50 [1] | IC50 [2] | Ki [2] | IC50 [3] | Ki [3] | IC50 (Melanocortin receptor 3) | IC50 [4] | IC50 [5] | IC50 (Substance-K receptor)

CC(=O)Nc1cccc(O)c1 [METACETAMOL]
Not Active: IC50 [1] | IC50 [2] | Ki [2] | IC50 [3] | Ki [3] | IC50 (Melanocortin receptor 3) | IC50 [4] | IC50 [5] | IC50 (Substance-K receptor)

Cc1ncc([N+](=O)[O-])n1CCO [METRONIDAZOLE]
Not Active: IC50 [1] | IC50 [2] | Ki [2] | IC50 [3] | Ki [3] | IC50 (Melanocortin receptor 3) | IC50 [4] | IC50 [5] | IC50 (Substance-K receptor)

CC(C)(C(=O)c1cccnc1)c1cccnc1 [METYRAPONE]
Not Active: IC50 [1] | IC50 [2] | Ki [2] | IC50 [3] | Ki [3] | IC50 (Melanocortin receptor 3) | IC50 [4] | IC50 [5] | IC50 (Substance-K receptor)

Oc1ccc(OCc2ccccc2)cc1 [MONOBENZONE]
Not Active: IC50 [1] | IC50 [2] | Ki [2] | IC50 [3] | Ki [3] | IC50 (Melanocortin receptor 3) | IC50 [4] | IC50 [5] | IC50 (Substance-K receptor)

CC(C)(Oc1ccc(C2CCCc3ccccc32)cc1)C(=O)O (stereo unspecified) [NAFENOPIN]
Not Active: IC50 [1] | IC50 [2] | Ki [2] | IC50 [3] | Ki [3] | IC50 (Melanocortin receptor 3) | IC50 [4] | IC50 [5] | IC50 (Substance-K receptor)

COc1ccc2cc([C@H](C)C(=O)O)ccc2c1 [NAPROXEN]
Not Active: IC50 [1] | IC50 [2] | Ki [2] | IC50 [3] | Ki [3] | IC50 (Melanocortin receptor 3) | IC50 [4] | IC50 [5] | IC50 (Substance-K receptor)

CC(C)[C@H]1CC[C@H](C(=O)N[C@H](Cc2ccccc2)C(=O)O)CC1 [NATEGLINIDE]
Not Active: IC50 [1] | IC50 [2] | Ki [2] | IC50 [3] | Ki [3] | IC50 (Melanocortin receptor 3) | IC50 [4] | IC50 [5] | IC50 (Substance-K receptor)

CCN[C@@H]1C[C@H](N)[C@@H](O[C@H]2OC(CN)=CC[C@H]2N)[C@H](O)[C@H]1O[C@H]1OC[C@](C)(O)[C@H](NC)[C@H]1O [NETILMICIN]
Not Active: IC50 [1] | IC50 [2] | Ki [2] | IC50 [3] | Ki [3] | IC50 (Melanocortin receptor 3) | IC50 [4] | IC50 [5] | IC50 (Substance-K receptor)

COC(=O)C1=C(C)NC(C)=C(C(=O)OCC(C)C)C1c1ccccc1[N+](=O)[O-] (stereo unspecified) [NISOLDIPINE]
Not Active: IC50 [1] | IC50 [2] | Ki [2] | IC50 [3] | Ki [3] | IC50 (Melanocortin receptor 3) | IC50 [4] | IC50 [5] | IC50 (Substance-K receptor)

CCOC(=O)C1=C(C)NC(C)=C(C(=O)OC)C1c1cccc([N+](=O)[O-])c1 (stereo unspecified) [NITRENDIPINE]
Not Active: IC50 [1] | IC50 [2] | Ki [2] | IC50 [3] | Ki [3] | IC50 (Melanocortin receptor 3) | IC50 [4] | IC50 [5] | IC50 (Substance-K receptor)

C#C[C@]1(OC(C)=O)CC[C@H]2[C@@H]3CCC4=CC(=O)CC[C@@H]4[C@H]3CC[C@@]21C [NORETHINDRONE ACETATE]
Not Active: IC50 [1] | IC50 [2] | Ki [2] | IC50 [3] | Ki [3] | IC50 (Melanocortin receptor 3) | IC50 [4] | IC50 [5] | IC50 (Substance-K receptor)

COc1ccc2[nH]c([S+]([O-])Cc3ncc(C)c(OC)c3C)nc2c1 (stereo unspecified) [OMEPRAZOLE]
Not Active: IC50 [1] | IC50 [2] | Ki [2] | IC50 [3] | Ki [3] | IC50 (Melanocortin receptor 3) | IC50 [4] | IC50 [5] | IC50 (Substance-K receptor)

Cc1nccn1CC1CCc2c(c3ccccc3n2C)C1=O (stereo unspecified) [ONDANSETRON]
Not Active: IC50 [1] | IC50 [2] | Ki [2] | IC50 [3] | Ki [3] | IC50 (Melanocortin receptor 3) | IC50 [4] | IC50 [5] | IC50 (Substance-K receptor)

CCn1cc(C(=O)O)c(=O)c2cc(F)c(N3CCN(C)CC3)cc21 [PEFLOXACIN]
Not Active: IC50 [1] | IC50 [2] | Ki [2] | IC50 [3] | Ki [3] | IC50 (Melanocortin receptor 3) | IC50 [4] | IC50 [5] | IC50 (Substance-K receptor)

CCCCOc1ccc(OCCCN2CCOCC2)cc1 [PRAMOXINE]
Not Active: IC50 [1] | IC50 [2] | Ki [2] | IC50 [3] | Ki [3] | IC50 (Melanocortin receptor 3) | IC50 [4] | IC50 [5] | IC50 (Substance-K receptor)

O=C(C1CCCCC1)N1CC(=O)N2CCc3ccccc3C2C1 (stereo unspecified) [PRAZIQUANTEL]
Not Active: IC50 [1] | IC50 [2] | Ki [2] | IC50 [3] | Ki [3] | IC50 (Melanocortin receptor 3) | IC50 [4] | IC50 [5] | IC50 (Substance-K receptor)

CCN(CC)CCOC(=O)c1ccc(N)cc1 [PROCAINE]
Not Active: IC50 [1] | IC50 [2] | Ki [2] | IC50 [3] | Ki [3] | IC50 (Melanocortin receptor 3) | IC50 [4] | IC50 [5] | IC50 (Substance-K receptor)

CCCN(CCC)C(=O)C(CCC(=O)O)NC(=O)c1ccccc1 (stereo unspecified) [PROGLUMIDE]
Not Active: IC50 [1] | IC50 [2] | Ki [2] | IC50 [3] | Ki [3] | IC50 (Melanocortin receptor 3) | IC50 [4] | IC50 [5] | IC50 (Substance-K receptor)

NC(=O)c1cnccn1 [PYRAZINAMIDE]
Not Active: IC50 [1] | IC50 [2] | Ki [2] | IC50 [3] | Ki [3] | IC50 (Melanocortin receptor 3) | IC50 [4] | IC50 [5] | IC50 (Substance-K receptor)

OC(CCN1CCCCC1)(c1ccccc1)C1CCCCC1 (stereo unspecified) [TRIHEXYPHENIDYL]
Not Active: IC50 [1] | IC50 [2] | Ki [2] | IC50 [3] | Ki [3] | IC50 (Melanocortin receptor 3) | IC50 [4] | IC50 [5] | IC50 (Substance-K receptor)

Cc1cc2cc3c(C)cc(=O)oc3c(C)c2o1 [TRIOXSALEN]
Not Active: IC50 [1] | IC50 [2] | Ki [2] | IC50 [3] | Ki [3] | IC50 (Melanocortin receptor 3) | IC50 [4] | IC50 [5] | IC50 (Substance-K receptor)
